Reference: the NIST ThermoML archive (doi:10.1016/j.fluid.2006.12.011)

Key:
[1] = Liquid, Vibrating tube method
[2] = xn = mol fraction of the nth substance listed; settings: Liquid, Vibrating tube method, x2 = 0

C1CC[C@H]2CCCC[C@H]2C1 [cis-decahydronaphthalene]
mass density [kg/m3], [1]
Settings | 303.15 K | 323.15 K | 343.15 K
100 kPa | 888.5 | 873.2 | 857.8
5000 kPa | 891.4 | 876.5 | 861.5
10000 kPa | 894.4 | 879.8 | 865.1
15000 kPa | 897.3 | 883 | 868.6
20000 kPa | 899.9 | 886 | 871.9
25000 kPa | 902.8 | 889 | 875.1
30000 kPa | 905.5 | 891.8 | 878.3
35000 kPa | 908 | 894.6 | 881.2
40000 kPa | 910.6 | 897.3 | 884.1
45000 kPa | 913 | 899.9 | 887
50000 kPa | 915.3 | 902.4 | 889.7
55000 kPa | 917.6 | 904.8 | 892.3
60000 kPa | 919.9 | 907.3 | 894.9
65000 kPa | 922.1 | 909.6 | 897.4

C1CC[C@H]2CCCC[C@@H]2C1 [trans-decahydronaphthalene]
mass density [kg/m3], [1]
Settings | 303.15 K | 323.15 K | 343.15 K
100 kPa | 862.1 | 847.1 | 832
5000 kPa | 865.4 | 850.9 | 836.2
10000 kPa | 868.7 | 854.4 | 840.1
15000 kPa | 871.6 | 857.8 | 843.9
20000 kPa | 874.6 | 861 | 847.4
25000 kPa | 877.6 | 864.1 | 850.8
30000 kPa | 880.3 | 867.1 | 854.1
35000 kPa | 882.9 | 870 | 857.2
40000 kPa | 885.6 | 872.8 | 860.3
45000 kPa | 888.2 | 875.6 | 863.2
50000 kPa | 890.6 | 878.3 | 866.1
55000 kPa | 893 | 880.8 | 868.8
60000 kPa | 895.3 | 883.4 | 871.5
65000 kPa | 897.6 | 885.8 | 874.2

C1CC[C@H]2CCCC[C@@H]2C1 [trans-decahydronaphthalene] + C1CC[C@H]2CCCC[C@H]2C1
mass density [kg/m3], [2]
Settings | 303.15 K | 323.15 K | 343.15 K
100 kPa | 862.1 | 847.1 | 832
5000 kPa | 865.4 | 850.9 | 836.2
10000 kPa | 868.7 | 854.4 | 840.1
15000 kPa | 871.6 | 857.8 | 843.9
20000 kPa | 874.6 | 861 | 847.4
25000 kPa | 877.6 | 864.1 | 850.8
30000 kPa | 880.3 | 867.1 | 854.1
35000 kPa | 882.9 | 870 | 857.2
40000 kPa | 885.6 | 872.8 | 860.3
45000 kPa | 888.2 | 875.6 | 863.2
50000 kPa | 890.6 | 878.3 | 866.1
55000 kPa | 893 | 880.8 | 868.8
60000 kPa | 895.3 | 883.4 | 871.5
65000 kPa | 897.6 | 885.8 | 874.2
